From the kinase profiling compilation of Christmann-Franck et al. (2016)

What was measured:
Experiment in all cases: KINOMEscan competition binding
Settings in all cases: compound 10.0 µM
AKT3 (human) = AKT3 (human) (UniProt Q9Y243)
RPS6KB1 (human) = RPS6KB1 (human) (UniProt P23443)
EPHA6 (human) = EPHA6 (human) (UniProt Q9UF33)
CDK7 (human) = CDK7 (human) (UniProt P50613)
CDKL1 (human) = CDKL1 (human) (UniProt Q00532)
TGFBR1 (human) = TGFBR1 (human) (UniProt P36897)
MAPK15 (human) = MAPK15 (human) (UniProt Q8TD08)
RPS6KA4 KD1 (human) = RPS6KA4 KD1 (human) (UniProt O75676)
TGFBR2 (human) = TGFBR2 (human) (UniProt P37173)
CDK13 (human) = CDK13 (human) (UniProt Q14004)
CLK3 (human) = CLK3 (human) (UniProt P49761)
CDK14 (human) = CDK14 (human) (UniProt O94921)
CAMK2A (human) = CAMK2A (human) (UniProt Q9UQM7)
NTRK2 (human) = NTRK2 (human) (UniProt Q16620)
ICK (human) = ICK (human) (UniProt Q9UPZ9)
RIPK4 (human) = RIPK4 (human) (UniProt P57078)
IGF1R (human) = IGF1R (human) (UniProt P08069)
DAPK1 (human) = DAPK1 (human) (UniProt P53355)
CDK2 (human) = CDK2 (human) (UniProt P24941)
MAP2K6 (human) = MAP2K6 (human) (UniProt P52564)
PRKD2 (human) = PRKD2 (human) (UniProt Q9BZL6)
IRAK1 (human) = IRAK1 (human) (UniProt P51617)
LATS2 (human) = LATS2 (human) (UniProt Q9NRM7)
MAPK12 (human) = MAPK12 (human) (UniProt P53778)
RPS6KA1 KD2 (human) = RPS6KA1 KD2 (human) (UniProt Q15418)
NUAK2 (human) = NUAK2 (human) (UniProt Q9H093)
LRRK2 (human) = LRRK2 (human) (UniProt Q5S007)
TNK2 (human) = TNK2 (human) (UniProt Q07912)
MAP4K1 (human) = MAP4K1 (human) (UniProt Q92918)
STK17B (human) = STK17B (human) (UniProt O94768)
PRKG1 (human) = PRKG1 (human) (UniProt Q13976)
[1] = molecular target: TYK2 JH2 pseudokinase (human) (UniProt P29597)
DAPK2 (human) = DAPK2 (human) (UniProt Q9UIK4)
ANKK1 (human) = ANKK1 (human) (UniProt Q8NFD2)
HIPK2 (human) = HIPK2 (human) (UniProt Q9H2X6)
STK35 (human) = STK35 (human) (UniProt Q8TDR2)
MAP3K5 (human) = MAP3K5 (human) (UniProt Q99683)
PDPK1 (human) = PDPK1 (human) (UniProt O15530)
EIF2AK1 (human) = EIF2AK1 (human) (UniProt Q9BQI3)
PIK3C2G (human) = PIK3C2G (human) (UniProt O75747)
PIK3C2G (human), sequence (O75747 whole entry, looked up): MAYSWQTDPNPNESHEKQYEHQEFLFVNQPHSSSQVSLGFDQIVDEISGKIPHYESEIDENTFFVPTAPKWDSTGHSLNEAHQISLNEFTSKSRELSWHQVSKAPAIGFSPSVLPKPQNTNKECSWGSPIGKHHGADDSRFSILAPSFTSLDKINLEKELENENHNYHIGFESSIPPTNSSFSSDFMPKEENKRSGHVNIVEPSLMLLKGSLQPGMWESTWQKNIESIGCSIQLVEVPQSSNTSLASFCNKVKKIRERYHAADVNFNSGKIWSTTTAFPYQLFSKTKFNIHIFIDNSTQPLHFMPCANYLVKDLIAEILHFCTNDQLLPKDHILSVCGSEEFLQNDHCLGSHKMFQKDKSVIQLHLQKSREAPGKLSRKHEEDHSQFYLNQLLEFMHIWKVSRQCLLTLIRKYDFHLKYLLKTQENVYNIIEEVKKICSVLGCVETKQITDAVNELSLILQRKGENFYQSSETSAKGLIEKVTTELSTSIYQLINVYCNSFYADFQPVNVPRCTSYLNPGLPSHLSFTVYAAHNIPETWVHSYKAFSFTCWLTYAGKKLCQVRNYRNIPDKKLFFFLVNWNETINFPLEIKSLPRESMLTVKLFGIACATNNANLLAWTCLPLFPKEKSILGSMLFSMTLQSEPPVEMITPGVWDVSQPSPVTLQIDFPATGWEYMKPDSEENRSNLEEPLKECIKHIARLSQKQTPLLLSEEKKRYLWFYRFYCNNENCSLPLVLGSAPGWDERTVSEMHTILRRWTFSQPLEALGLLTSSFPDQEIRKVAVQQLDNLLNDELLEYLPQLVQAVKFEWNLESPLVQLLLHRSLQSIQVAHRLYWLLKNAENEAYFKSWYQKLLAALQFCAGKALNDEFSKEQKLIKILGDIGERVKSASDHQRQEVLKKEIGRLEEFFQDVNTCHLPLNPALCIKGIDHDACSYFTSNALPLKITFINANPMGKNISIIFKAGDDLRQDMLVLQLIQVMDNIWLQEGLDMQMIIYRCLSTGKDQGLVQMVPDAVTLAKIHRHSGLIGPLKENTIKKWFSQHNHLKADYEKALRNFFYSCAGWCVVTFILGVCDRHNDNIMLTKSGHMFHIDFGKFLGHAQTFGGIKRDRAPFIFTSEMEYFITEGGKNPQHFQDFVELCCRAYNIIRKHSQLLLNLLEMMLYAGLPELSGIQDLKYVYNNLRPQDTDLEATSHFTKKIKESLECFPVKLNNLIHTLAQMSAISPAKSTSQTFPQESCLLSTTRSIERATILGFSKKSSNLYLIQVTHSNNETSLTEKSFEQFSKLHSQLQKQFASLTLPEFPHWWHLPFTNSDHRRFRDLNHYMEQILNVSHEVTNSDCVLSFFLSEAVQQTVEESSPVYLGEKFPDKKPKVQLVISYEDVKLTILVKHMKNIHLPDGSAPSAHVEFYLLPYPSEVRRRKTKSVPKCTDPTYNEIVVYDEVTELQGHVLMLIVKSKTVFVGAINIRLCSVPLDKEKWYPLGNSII

STK35 (human), sequence (Q8TDR2 whole entry, looked up): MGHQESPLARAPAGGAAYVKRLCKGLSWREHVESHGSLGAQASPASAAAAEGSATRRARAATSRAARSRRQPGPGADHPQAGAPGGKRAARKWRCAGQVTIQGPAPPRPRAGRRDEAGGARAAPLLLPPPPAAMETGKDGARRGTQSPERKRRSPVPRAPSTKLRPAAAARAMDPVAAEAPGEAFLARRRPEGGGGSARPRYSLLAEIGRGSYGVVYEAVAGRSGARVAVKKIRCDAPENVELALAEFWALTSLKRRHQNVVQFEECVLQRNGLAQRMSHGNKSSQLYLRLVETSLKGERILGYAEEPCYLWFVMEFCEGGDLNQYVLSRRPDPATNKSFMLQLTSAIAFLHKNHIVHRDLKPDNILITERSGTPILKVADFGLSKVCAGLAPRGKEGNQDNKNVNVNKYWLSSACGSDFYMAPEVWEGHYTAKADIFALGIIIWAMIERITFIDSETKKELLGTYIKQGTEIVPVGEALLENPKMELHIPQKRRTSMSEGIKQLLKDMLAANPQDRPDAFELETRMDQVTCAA
MAPK12 (human), sequence (P53778 whole entry, looked up): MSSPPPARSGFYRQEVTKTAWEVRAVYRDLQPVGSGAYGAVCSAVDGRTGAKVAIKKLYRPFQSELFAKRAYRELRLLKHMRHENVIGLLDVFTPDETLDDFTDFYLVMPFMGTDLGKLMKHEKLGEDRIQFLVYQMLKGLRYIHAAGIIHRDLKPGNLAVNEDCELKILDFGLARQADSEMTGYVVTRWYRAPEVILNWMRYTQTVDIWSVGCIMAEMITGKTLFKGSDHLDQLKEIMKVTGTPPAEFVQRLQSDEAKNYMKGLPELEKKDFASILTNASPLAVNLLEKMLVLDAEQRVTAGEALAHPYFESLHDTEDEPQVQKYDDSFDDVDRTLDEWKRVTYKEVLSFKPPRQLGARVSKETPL
MAPK15 (human), sequence (Q8TD08 whole entry, looked up): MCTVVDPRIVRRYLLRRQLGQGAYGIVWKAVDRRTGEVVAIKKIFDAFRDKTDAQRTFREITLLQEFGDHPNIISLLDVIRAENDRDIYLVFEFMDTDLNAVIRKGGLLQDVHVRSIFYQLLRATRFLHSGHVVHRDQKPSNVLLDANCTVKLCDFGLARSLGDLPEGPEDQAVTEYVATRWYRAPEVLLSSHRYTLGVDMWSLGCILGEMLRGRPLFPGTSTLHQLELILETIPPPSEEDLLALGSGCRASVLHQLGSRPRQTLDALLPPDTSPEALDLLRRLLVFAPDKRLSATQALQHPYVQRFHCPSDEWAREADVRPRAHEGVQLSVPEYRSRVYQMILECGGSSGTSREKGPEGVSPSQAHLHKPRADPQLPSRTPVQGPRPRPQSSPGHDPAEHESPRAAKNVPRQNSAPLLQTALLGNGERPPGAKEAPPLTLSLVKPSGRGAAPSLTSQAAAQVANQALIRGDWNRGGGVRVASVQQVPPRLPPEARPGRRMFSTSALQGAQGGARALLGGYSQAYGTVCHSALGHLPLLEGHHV
PDPK1 (human), sequence (O15530 whole entry, looked up): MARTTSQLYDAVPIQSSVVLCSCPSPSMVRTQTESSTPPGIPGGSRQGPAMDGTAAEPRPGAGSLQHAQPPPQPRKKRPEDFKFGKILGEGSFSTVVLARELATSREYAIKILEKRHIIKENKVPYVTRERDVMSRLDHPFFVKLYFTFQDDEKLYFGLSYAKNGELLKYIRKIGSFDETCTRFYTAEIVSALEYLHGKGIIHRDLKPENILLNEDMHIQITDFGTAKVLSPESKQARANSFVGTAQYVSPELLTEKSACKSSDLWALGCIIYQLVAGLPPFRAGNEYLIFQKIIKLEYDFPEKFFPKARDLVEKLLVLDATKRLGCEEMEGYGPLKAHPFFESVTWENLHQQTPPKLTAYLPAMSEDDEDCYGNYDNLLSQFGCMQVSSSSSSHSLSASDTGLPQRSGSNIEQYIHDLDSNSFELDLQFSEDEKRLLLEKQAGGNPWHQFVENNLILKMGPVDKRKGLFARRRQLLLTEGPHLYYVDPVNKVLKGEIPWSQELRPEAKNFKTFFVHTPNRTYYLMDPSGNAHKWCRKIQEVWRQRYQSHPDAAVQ
CDK7 (human), sequence (P50613 whole entry, looked up): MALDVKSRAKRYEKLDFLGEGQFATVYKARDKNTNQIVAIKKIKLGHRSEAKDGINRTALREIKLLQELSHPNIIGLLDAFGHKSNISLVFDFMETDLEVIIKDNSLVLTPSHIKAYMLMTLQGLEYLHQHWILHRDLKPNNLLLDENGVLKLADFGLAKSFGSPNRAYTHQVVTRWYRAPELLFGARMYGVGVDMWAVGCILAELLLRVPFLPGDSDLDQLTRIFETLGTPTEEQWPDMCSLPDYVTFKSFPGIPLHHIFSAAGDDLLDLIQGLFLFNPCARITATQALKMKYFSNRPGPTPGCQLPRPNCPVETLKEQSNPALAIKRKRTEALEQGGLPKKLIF
RPS6KA4 KD1 (human), sequence (O75676 whole entry, looked up): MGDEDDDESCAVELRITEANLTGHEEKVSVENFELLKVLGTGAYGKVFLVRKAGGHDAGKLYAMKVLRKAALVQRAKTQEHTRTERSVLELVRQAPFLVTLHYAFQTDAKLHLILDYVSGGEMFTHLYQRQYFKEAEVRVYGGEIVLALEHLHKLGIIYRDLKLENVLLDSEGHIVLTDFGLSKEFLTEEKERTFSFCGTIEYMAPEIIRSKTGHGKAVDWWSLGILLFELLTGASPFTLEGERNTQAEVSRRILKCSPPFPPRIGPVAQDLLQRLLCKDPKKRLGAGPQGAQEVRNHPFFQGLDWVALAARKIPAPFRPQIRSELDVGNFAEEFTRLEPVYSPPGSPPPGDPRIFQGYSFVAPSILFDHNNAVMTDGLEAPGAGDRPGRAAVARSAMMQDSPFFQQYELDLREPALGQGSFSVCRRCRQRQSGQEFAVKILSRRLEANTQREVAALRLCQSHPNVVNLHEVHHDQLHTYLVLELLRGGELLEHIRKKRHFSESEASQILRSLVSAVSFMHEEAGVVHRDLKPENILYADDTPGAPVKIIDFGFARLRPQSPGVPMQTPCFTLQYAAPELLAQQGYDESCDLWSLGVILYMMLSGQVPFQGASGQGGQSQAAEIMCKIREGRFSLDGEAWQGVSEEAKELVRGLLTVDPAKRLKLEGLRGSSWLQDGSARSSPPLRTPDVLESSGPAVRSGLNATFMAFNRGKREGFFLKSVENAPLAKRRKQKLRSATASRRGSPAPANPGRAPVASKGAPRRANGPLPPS
DAPK2 (human), sequence (Q9UIK4 whole entry, looked up): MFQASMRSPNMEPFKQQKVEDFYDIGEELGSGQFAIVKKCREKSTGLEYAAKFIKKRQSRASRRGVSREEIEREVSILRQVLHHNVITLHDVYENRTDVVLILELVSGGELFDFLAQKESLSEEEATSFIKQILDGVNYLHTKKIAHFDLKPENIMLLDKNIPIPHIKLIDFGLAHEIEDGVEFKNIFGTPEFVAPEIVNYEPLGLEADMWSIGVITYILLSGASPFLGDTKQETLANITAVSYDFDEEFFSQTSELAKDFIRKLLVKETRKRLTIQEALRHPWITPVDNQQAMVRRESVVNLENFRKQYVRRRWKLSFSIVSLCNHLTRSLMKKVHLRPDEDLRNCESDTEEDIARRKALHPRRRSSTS

Structure (SMILES)	kinase still bound, per cent of control (AKT3 (human)) [%]	kinase still bound, per cent of control (EPHA6 (human)) [%]	kinase still bound, per cent of control (CDK7 (human)) [%]	kinase still bound, per cent of control (TGFBR1 (human)) [%]	kinase still bound, per cent of control (MAPK15 (human)) [%]	kinase still bound, per cent of control (RPS6KA4 KD1 (human)) [%]	kinase still bound, per cent of control (TGFBR2 (human)) [%]	kinase still bound, per cent of control (CLK3 (human)) [%]	kinase still bound, per cent of control (CDK14 (human)) [%]	kinase still bound, per cent of control (CAMK2A (human)) [%]	kinase still bound, per cent of control (NTRK2 (human)) [%]	kinase still bound, per cent of control (ICK (human)) [%]	kinase still bound, per cent of control (RIPK4 (human)) [%]	kinase still bound, per cent of control (IGF1R (human)) [%]	kinase still bound, per cent of control (DAPK1 (human)) [%]	kinase still bound, per cent of control (CDK2 (human)) [%]	kinase still bound, per cent of control (MAP2K6 (human)) [%]	kinase still bound, per cent of control (PRKD2 (human)) [%]	kinase still bound, per cent of control (IRAK1 (human)) [%]	kinase still bound, per cent of control (LATS2 (human)) [%]	also measured
Nc1ccc(-c2ccc3ncc4ccc(=O)n(-c5cccc(C(F)(F)F)c5)c4c3c2)cn1	100	100	51	100	18	82	84	71	97	83	72	79	100	100	91	67	93	100	84	100	kinase still bound, per cent of control (RPS6KB1 (human)): 86%; kinase still bound, per cent of control (CDKL1 (human)): 97%; kinase still bound, per cent of control (CDK13 (human)): 100%; kinase still bound, per cent of control (MAPK12 (human)): 87%; kinase still bound, per cent of control (RPS6KA1 KD2 (human)): 100%; kinase still bound, per cent of control (NUAK2 (human)): 46%; kinase still bound, per cent of control (LRRK2 (human)): 80%; kinase still bound, per cent of control (TNK2 (human)): 100%; kinase still bound, per cent of control (MAP4K1 (human)): 100%; kinase still bound, per cent of control (STK17B (human)): 89%; kinase still bound, per cent of control (PRKG1 (human)): 83%; kinase still bound, per cent of control [1]: 6.3%; kinase still bound, per cent of control (DAPK2 (human)): 100%; kinase still bound, per cent of control (ANKK1 (human)): 100%; kinase still bound, per cent of control (HIPK2 (human)): 53%; kinase still bound, per cent of control (STK35 (human)): 92%; kinase still bound, per cent of control (MAP3K5 (human)): 100%; kinase still bound, per cent of control (PDPK1 (human)): 100%; kinase still bound, per cent of control (EIF2AK1 (human)): 91%
CCC(=O)N1CCN(c2ccc(-n3c(=O)ccc4cnc5ccc(-c6cnc7ccccc7c6)cc5c43)cc2C(F)(F)F)CC1	77	75	57	70	79	100	77	43	99	93	81	100	100	94	96	6.2	100	100	100	100	kinase still bound, per cent of control (CDKL1 (human)): 100%; kinase still bound, per cent of control (CDK13 (human)): 80%; kinase still bound, per cent of control (MAPK12 (human)): 71%; kinase still bound, per cent of control (RPS6KA1 KD2 (human)): 100%; kinase still bound, per cent of control (NUAK2 (human)): 100%; kinase still bound, per cent of control (LRRK2 (human)): 81%; kinase still bound, per cent of control (TNK2 (human)): 51%; kinase still bound, per cent of control (MAP4K1 (human)): 30%; kinase still bound, per cent of control (PIK3C2G (human)): 11%; kinase still bound, per cent of control (STK17B (human)): 67%; kinase still bound, per cent of control (PRKG1 (human)): 86%; kinase still bound, per cent of control [1]: 55%; kinase still bound, per cent of control (ANKK1 (human)): 93%; kinase still bound, per cent of control (HIPK2 (human)): 58%; kinase still bound, per cent of control (STK35 (human)): 18%; kinase still bound, per cent of control (MAP3K5 (human)): 100%; kinase still bound, per cent of control (PDPK1 (human)): 100%; kinase still bound, per cent of control (EIF2AK1 (human)): 57%
OCCCNc1cc(-c2ccnc(Nc3cccc(Cl)c3)n2)ccn1	100	100	100	100	2	100	100	100	100	100	100	2.2	100	100	100	100	100	100	100	100	kinase still bound, per cent of control (MAPK12 (human)): 100%; kinase still bound, per cent of control (RPS6KA1 KD2 (human)): 100%; kinase still bound, per cent of control (NUAK2 (human)): 100%; kinase still bound, per cent of control (TNK2 (human)): 100%; kinase still bound, per cent of control (MAP4K1 (human)): 100%; kinase still bound, per cent of control (PIK3C2G (human)): 100%; kinase still bound, per cent of control (STK17B (human)): 100%; kinase still bound, per cent of control (PRKG1 (human)): 100%; kinase still bound, per cent of control [1]: 100%; kinase still bound, per cent of control (DAPK2 (human)): 100%; kinase still bound, per cent of control (ANKK1 (human)): 100%; kinase still bound, per cent of control (HIPK2 (human)): 15%; kinase still bound, per cent of control (STK35 (human)): 100%; kinase still bound, per cent of control (MAP3K5 (human)): 100%; kinase still bound, per cent of control (PDPK1 (human)): 100%
COc1cc(C(=O)NC2CCN(C)CC2)ccc1Nc1ncc2c(n1)N(C1CCCC1)CCC(=O)N2C(C)C	100	100	100	100	100	100	100	100	100	100	100	100	100	100	100	100	100	100	100	100	kinase still bound, per cent of control (MAPK12 (human)): 100%; kinase still bound, per cent of control (RPS6KA1 KD2 (human)): 100%; kinase still bound, per cent of control (NUAK2 (human)): 100%; kinase still bound, per cent of control (TNK2 (human)): 100%; kinase still bound, per cent of control (MAP4K1 (human)): 100%; kinase still bound, per cent of control (PIK3C2G (human)): 100%; kinase still bound, per cent of control (STK17B (human)): 100%; kinase still bound, per cent of control (PRKG1 (human)): 100%; kinase still bound, per cent of control [1]: 100%; kinase still bound, per cent of control (DAPK2 (human)): 100%; kinase still bound, per cent of control (ANKK1 (human)): 100%; kinase still bound, per cent of control (HIPK2 (human)): 100%; kinase still bound, per cent of control (STK35 (human)): 100%; kinase still bound, per cent of control (MAP3K5 (human)): 100%; kinase still bound, per cent of control (PDPK1 (human)): 100%
